This is an account of results in US12503452B2 (Curza Global, LLC, priority 2019, dated 2025).

Broadly, the MIC is the smallest concentration in the dilution series that meets the test's criterion for growth inhibition.

One test relates to E. faecalis (Ef). Briefly: Broth microdilution minimum inhibitory concentration (MIC). As to conditions: Enterococcus faecalis, E. faecalis; growth medium supplemented with sodium bicarbonate; read-out: Ef + bicarb MIC. Type of test: cell-based. In outline:
(§1)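 CLSI broth microdilution with 8 two-fold compound dilutions in CAMHB, or CAMHB plus sodium bicarbonate (6.25 or 25 mM final) or heat-inactivated human serum (0–50%). Inoculum 5×10^4 CFU/well from 0.5 McFarland cultures grown at 35±2° C; tested in triplicate.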
Background: Broth dilution looks for growth in wells or tubes with falling amounts of substance.

The subject of the next test is A. baumannii (Ab). The description is as above. Type of test: cell-based. The settings on record: Acinetobacter baumannii; A. baumannii; growth medium supplemented with sodium bicarbonate; read-out: Ab + bicarb MIC. The procedure, abridged: as §1
The next test relates to E. coli (Ec). The description is as above. The test is classed as cell-based. As to conditions: Escherichia coli, E. coli; growth medium supplemented with sodium bicarbonate; read-out: E. coli + bicarb MIC. In outline:
as §1

The test system of another test is P. aeruginosa (Pa). The test is described as above. The test is classed as cell-based. The settings on record: Pseudomonas aeruginosa, P. aeruginosa; growth medium supplemented with sodium bicarbonate; read-out: Pa MIC + bicarb. In outline: as §1
In the next test the test system is S. aureus (Sa). Described as above. The settings on record: Staphylococcus aureus, S. aureus; growth medium supplemented with sodium bicarbonate; read-out: Sa + bicarb MIC. The test is classed as cell-based. In outline: as §1
Test [1] deals with E. coli S30 extract (bacterial protein synthesis). Briefly: E. coli S30 extract coupled transcription-translation luciferase assay (inhibition of bacterial protein synthesis). Type of test: biochemical. As to conditions: class by IC50 or % inhibition @ 1 μM, read-out: S30 IC50 (μM/% inhib.). The procedure, abridged: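 Cell-free coupled transcription-translation in E. coli S30 circular-DNA extract, with pBESTluc plasmid as template and complete amino acid mix. Eight 2-fold compound dilutions were incubated with the extract 1 h at 37 °C, chilled, then luciferase luminescence was read. % inhibition was taken relative to no-inhibitor wells; no-DNA wells gave background.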

For test [2], the target named is Rabbit Reticulocyte Lysate (eukaryotic protein synthesis). Briefly: Rabbit reticulocyte lysate luciferase assay (inhibition of eukaryotic protein synthesis). Type of test: biochemical. The settings on record: class by IC50 or % inhibition @ 1 μM, read-out: Rabbit reticulocyte IC50 (μM/% inhib.). In outline: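 Nuclease-treated rabbit reticulocyte lysate translating luciferase control RNA, with complete amino acids, was incubated at 30° C. for 90 minutes with 2-fold serial compound dilutions. Luminescence was measured after adding luciferase reagent. % inhibition was relative to water controls, with no-RNA wells as background.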

Take `CC(C)(N)C(=O)N1CCN(C(=O)Nc2ccn(-c3ccc(CCN4CCCC(NC5CC5)CC4)cc3)c(=O)n2)CC1` (stereo not shown) [Compound 29]: the MIC in the test on E. faecalis (Ef) was above 32 µg/mL; in the test on A. baumannii (Ab), above 32 µg/mL; in the test on E. coli (Ec), below 8 µg/mL; in the test on P. aeruginosa (Pa) it was above 32 µg/mL; in the test with S. aureus (Sa) it was 8 to 32 µg/mL. For the same compound, the IC50 in test [1] and in test [2] was above 1 µM each time.

In the case of `CC(C)(N)C(=O)N1CCN(C(=O)Nc2ccn(-c3ccc(CCNC4CCCNCC4)cc3)c(=O)n2)CC1` (stereo not shown) [Compound 30], the MIC in the test with E. faecalis (Ef) is above 32 µg/mL; in the test on A. baumannii (Ab), above 32 µg/mL; with E. coli (Ec) it was below 8 µg/mL; in the test with P. aeruginosa (Pa) it was above 32 µg/mL; in the test with S. aureus (Sa) it was below 8 µg/mL. For the same compound, the IC50 in test [1] is below 0.5 µM; in test [2] it was above 1 µM.

On to `CC(C)(N)C(=O)N1CCN(C(=O)Nc2ccn(-c3ccc(CCCN4CCCC(N)CC4)cc3)c(=O)n2)CC1` (stereo not shown) [Compound 31], for which the MIC with E. faecalis (Ef) was 8 to 32 µg/mL; in the test with A. baumannii (Ab) it was above 32 µg/mL; in the test with E. coli (Ec), below 8 µg/mL; in the test with P. aeruginosa (Pa), above 32 µg/mL; in the test with S. aureus (Sa) it was below 8 µg/mL. Moreover, the results for the IC50 in test [1] and in test [2] were below 0.5 µM and above 1 µM, respectively.

With `CC(C)(N)C(=O)N1CCN(C(=O)Nc2ccn(-c3ccc(CCCN4CC(N)C4)cc3)c(=O)n2)CC1` [Compound 32], the MIC with E. faecalis (Ef) was above 32 µg/mL; with A. baumannii (Ab), above 32 µg/mL; with E. coli (Ec), 8 to 32 µg/mL; in the test on P. aeruginosa (Pa), above 32 µg/mL; in the test on S. aureus (Sa), 8 to 32 µg/mL. The IC50 in test [1] and in test [2] was above 1 µM in each case.

`CNC1CCCN(CCc2ccc(-n3ccc(NC(=O)N4CCN(C(=O)C(C)(C)N)CC4)nc3=O)cc2)CC1` (stereo not shown) [Compound 33]: the MIC with E. faecalis (Ef) was above 32 µg/mL; with A. baumannii (Ab), above 32 µg/mL; in the test with E. coli (Ec), below 8 µg/mL; in the test on P. aeruginosa (Pa) it was above 32 µg/mL; with S. aureus (Sa), 8 to 32 µg/mL. Besides, the IC50 in test [1] is 0.5 to 1 µM; in test [2], above 1 µM.

As for `CC(N)C1CCN(CCc2cccc(-n3ccc(NC(=O)N4CCN(C(=O)C(C)(C)N)CC4)nc3=O)c2)CC1` (stereo not shown) [Compound 34], the minimum inhibitory concentration (MIC) was below 8 µg/mL with E. faecalis (Ef); above 32 µg/mL in the test with A. baumannii (Ab); below 8 µg/mL in the test with E. coli (Ec); above 32 µg/mL in the test with P. aeruginosa (Pa); below 8 µg/mL in the test with S. aureus (Sa). Moreover, the IC50 in test [1] is below 0.5 µM; in test [2] it was above 1 µM.

Take `C[C@@](N)(CO)C(=O)N1CCN(C(=O)Nc2ccn(-c3ccc(CCN4CCCC(N)CC4)cc3)c(=O)n2)CC1` (stereo partly shown) [Compound 35]: the MIC with E. faecalis (Ef) was below 8 µg/mL; with A. baumannii (Ab), above 32 µg/mL; in the test with E. coli (Ec) it was below 8 µg/mL; in the test with P. aeruginosa (Pa), 8 to 32 µg/mL; in the test with S. aureus (Sa), below 8 µg/mL. Moreover, the IC50 in test [1] and in test [2] was above 1 µM each time.

Take `CC(C)(N)C(=O)N1CCN(C(=O)Nc2ccn(-c3ccc(CN4CCC(N)CC4)cc3)c(=O)n2)CC1` [Compound 57]: the MIC is 8 to 32 µg/mL with E. faecalis (Ef); above 32 µg/mL in the test with A. baumannii (Ab); below 8 µg/mL in the test with E. coli (Ec); above 32 µg/mL in the test on P. aeruginosa (Pa); below 8 µg/mL in the test on S. aureus (Sa). In addition, the IC50 in test [1] was below 0.5 µM; in test [2], above 1 µM.

Consider `C[C@@H]1CN(C(=O)C(C)(C)N)CCN1C(=O)Nc1ccn(-c2ccc(CN3CCC(N)CC3)cc2)c(=O)n1` [Compound 61], for which the MIC is 8 to 32 µg/mL in the test on E. faecalis (Ef); above 32 µg/mL in the test with A. baumannii (Ab); below 8 µg/mL with E. coli (Ec); above 32 µg/mL in the test on P. aeruginosa (Pa); below 8 µg/mL in the test on S. aureus (Sa). For the same compound, the IC50 in test [1] was below 0.5 µM; in test [2], above 1 µM.

Regarding `CC(C)(N)C(=O)N1CCN(C(=O)Nc2ccn(-c3ccc(CN4CCC(N)CC4)cc3)c(=O)n2)C(CO)C1` (stereo not shown) [Compound 62], the MIC is above 32 µg/mL in the test with E. faecalis (Ef); above 32 µg/mL with A. baumannii (Ab); below 8 µg/mL in the test on E. coli (Ec); above 32 µg/mL in the test with P. aeruginosa (Pa); above 32 µg/mL with S. aureus (Sa). Moreover, the values for the IC50 in test [1] and in test [2] were below 0.5 µM and above 1 µM, respectively.

Consider `CC(N)C1CCN(Cc2ccc(-n3ccc(NC(=O)N4CCN(C(=O)[C@@](C)(N)CO)[C@H](C)C4)nc3=O)cc2)CC1` (stereo partly shown) [Compound 70], for which the MIC with E. faecalis (Ef) is below 8 µg/mL; in the test on A. baumannii (Ab), above 32 µg/mL; in the test with E. coli (Ec), below 8 µg/mL; in the test on P. aeruginosa (Pa), above 32 µg/mL; in the test with S. aureus (Sa) it was below 8 µg/mL. Besides, the IC50 in test [1] was below 0.5 µM; in test [2], above 1 µM.

For `C[C@@H]1CN(C(=O)Nc2ccn(-c3ccc(CCN4CCCC(N)CC4)cc3)c(=O)n2)CCN1C(=O)C(C)(C)N` (stereo partly shown) [Compound 71], the MIC was below 8 µg/mL in the test on E. faecalis (Ef); below 8 µg/mL with A. baumannii (Ab); below 8 µg/mL with E. coli (Ec); 8 to 32 µg/mL in the test on P. aeruginosa (Pa); below 8 µg/mL in the test on S. aureus (Sa). Further, the IC50 in test [1] was below 0.5 µM; in test [2] it was above 1 µM.

As to `C[C@@H]1CN(C(=O)Nc2ccn(-c3ccc(CN4CCC(N)CC4)cc3)c(=O)n2)CCN1C(=O)C(C)(C)N` [Compound 79], the minimal inhibitory concentration (MIC) in the test on E. faecalis (Ef) was 8 to 32 µg/mL; in the test with A. baumannii (Ab) it was above 32 µg/mL; with E. coli (Ec), below 8 µg/mL; in the test with P. aeruginosa (Pa), above 32 µg/mL; in the test on S. aureus (Sa) it was below 8 µg/mL. Besides, the IC50 was below 0.5 µM in test [1] and above 1 µM in test [2].

Take `C[C@@H]1CN(C(=O)C(C)(C)N)CCN1C(=O)Nc1ccn(-c2ccc(CN3CCC(CN)CC3)cc2)c(=O)n1` [Compound 82]: the MIC in the test on E. faecalis (Ef) is below 8 µg/mL; with A. baumannii (Ab), 8 to 32 µg/mL; in the test with E. coli (Ec), below 8 µg/mL; with P. aeruginosa (Pa) it was above 32 µg/mL; with S. aureus (Sa), below 8 µg/mL. For the same compound, the IC50 in test [1] is below 0.5 µM; in test [2] it was above 1 µM.

For the compound `C[C@@H]1CN(C(=O)C(C)(C)N)CCN1C(=O)Nc1ccn(-c2ccc(CCN3CCCC(N)CC3)cc2)c(=O)n1` (stereo partly shown) [Compound 90], the MIC in the test on E. faecalis (Ef) is below 8 µg/mL; with A. baumannii (Ab), below 8 µg/mL; in the test on E. coli (Ec), below 8 µg/mL; with P. aeruginosa (Pa), above 32 µg/mL; with S. aureus (Sa), below 8 µg/mL. For the same compound, the results for the IC50 in test [1] and in test [2] were below 0.5 µM and above 1 µM, respectively.

With `CC(N)C1CCN(Cc2ccc(-n3ccc(NC(=O)N4CCN(C(=O)C(C)(C)N)CC4)nc3=O)cn2)CC1` (stereo not shown) [Compound 95], the MIC in the test on E. faecalis (Ef) was above 32 µg/mL; with A. baumannii (Ab) it was above 32 µg/mL; in the test on E. coli (Ec), below 8 µg/mL; in the test with P. aeruginosa (Pa), above 32 µg/mL; in the test with S. aureus (Sa), 8 to 32 µg/mL. Also, the IC50 in test [1] is below 0.5 µM; in test [2], above 1 µM.

In the case of `CCC(N)C1CCCN(Cc2ccc(-n3ccc(NC(=O)N4CCN(C(=O)C(C)(C)N)CC4)nc3=O)cc2)C1` (stereo not shown) [Compound 110], the MIC in the test on E. faecalis (Ef) was 8 to 32 µg/mL; in the test with A. baumannii (Ab), above 32 µg/mL; with E. coli (Ec) it was below 8 µg/mL; in the test with P. aeruginosa (Pa), above 32 µg/mL; with S. aureus (Sa) it was below 8 µg/mL. The IC50 in test [1] is below 0.5 µM; in test [2], above 1 µM.

Regarding `CN(Cc1ccc(-n2ccc(NC(=O)N3CCN(C(=O)C(C)(C)N)CC3)nc2=O)cc1)CC1CNC1` [Compound 111], the MIC was above 32 µg/mL in the test on E. faecalis (Ef); above 32 µg/mL with A. baumannii (Ab); 8 to 32 µg/mL with E. coli (Ec); above 32 µg/mL in the test with P. aeruginosa (Pa); 8 to 32 µg/mL with S. aureus (Sa). In addition, the IC50 in test [1] was 0.5 to 1 µM; in test [2], above 1 µM.

On to `CC(C)(N)C(=O)N1CCN(C(=O)Nc2ccn(-c3ccc(CNCC4CNC4)cc3)c(=O)n2)CC1` [Compound 112], for which the MIC with E. faecalis (Ef) was above 32 µg/mL; in the test on A. baumannii (Ab), above 32 µg/mL; in the test with E. coli (Ec), 8 to 32 µg/mL; in the test on P. aeruginosa (Pa), above 32 µg/mL; in the test with S. aureus (Sa), 8 to 32 µg/mL. Besides, the results for the IC50 in test [1] and in test [2] were below 0.5 µM and above 1 µM, respectively.
